Legend:
[1] = molecular target: T1, IgE-Tb binding to sFcεR1α-Y131A-AF488 (Homo sapiens, UniProt P01854, N146Q/N252Q); experiment: In vitro FRET assay of IgE-Tb binding to sFcεR1α receptor (protocol for examples 9 and 10, 18 hours incubation); conditions: examples 9 and 10: compound incubated 30 minutes with IgE-Tb before sFcεR1α-Y131A-AF488; incubated 18 hours at room temperature; read-out: FRET IC50 range
T1 construct: fused on or other part: LanthaScreen amine-reactive terbium chelate label on IgE-Fc (about 4 Tb per IgE-Fc)
T1 sequence (P01854 whole entry N146Q/N252Q, the tested form may be a part): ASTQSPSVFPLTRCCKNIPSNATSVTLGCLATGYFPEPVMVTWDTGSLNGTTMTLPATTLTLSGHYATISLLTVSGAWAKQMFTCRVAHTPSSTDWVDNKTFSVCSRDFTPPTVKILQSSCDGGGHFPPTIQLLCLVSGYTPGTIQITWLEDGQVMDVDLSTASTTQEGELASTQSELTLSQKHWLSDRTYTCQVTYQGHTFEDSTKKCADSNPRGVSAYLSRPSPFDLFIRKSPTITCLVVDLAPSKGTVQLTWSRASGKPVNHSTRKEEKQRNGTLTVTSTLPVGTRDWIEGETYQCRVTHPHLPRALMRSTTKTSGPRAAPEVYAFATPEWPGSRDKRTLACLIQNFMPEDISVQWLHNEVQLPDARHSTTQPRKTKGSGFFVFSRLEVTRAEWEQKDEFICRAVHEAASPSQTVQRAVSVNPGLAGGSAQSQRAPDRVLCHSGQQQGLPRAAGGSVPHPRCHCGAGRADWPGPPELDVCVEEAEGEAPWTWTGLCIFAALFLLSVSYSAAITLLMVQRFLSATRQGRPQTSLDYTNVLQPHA
Procedure: In vitro Biochemical Assay:
Protocol for preparation of IgE-Tb reagent
86 nmoles of IgE-Fc(N265Q, N371Q) (Young et al., 1995) at 172 μM in 100 mM NaHCO3, pH 9.5 was added to 1 mg of LanthaScreen™ Amine Reactive Tb Chelate (ThermoFisher catalogue number PV3583) and incubated for 16 hours at 20° C. The material was then buffer exchanged into Phosphate Buffered Saline (being, 137 mM NaCl, 2.7 mM KCl, 10 mM Na2HPO4, 1.8 mM K2HPO4, pH 7.4) and the material quantified and the degree of Tb conjugation determined by measuring the absorption at 280 nm and 343 nm.
(§1) The integrity of the conjugated material was determined by analytical size exclusion chromatography on a 5200 HR 10×300 column (GE Healthcare). […]
175 nmoles of protein was added to 1 mg of Alexa Fluor™ 488 hydrazide (Invitrogen) and incubated for 16 hours at 22° C. […] The protein was buffer exchanged into Phosphate Buffered Saline (being, 137 mM NaCl, 2.7 mM KCl, 10 mM Na2HPO4, 1.8 mM K2HPO4, pH 7.4) and the material quantified and the degree of Alexa Fluor™ 488 conjugation determined by measuring the absorption at 280 nm and 495 nm.
as §1
The aim was to measure binding of IgE-Tb to receptor, and the inhibition thereof by compounds, using an in vitro Fluorescence Resonance Energy Transfer (FRET) Assay. […]

[2] = molecular target: T2, IgE-Tb binding to soluble IgE receptor FcεRIα-Y131A-AF488 (Homo sapiens, UniProt P0DOX4, N265Q/N371Q); experiment: In vitro FRET assay of IgE-Tb binding to FcεRIα receptor (protocol for most examples, 2 hours incubation); conditions: 5 nM IgE-Tb, 25 nM FcεRIα-Y131A-AF488; incubated 2 hours at room temperature; read-out: FRET IC50 range
T2 construct: 86 nmoles of IgE-Fc(N265Q, N371Q) (Young et al., 1995)
T2 sequence (P0DOX4 224-547 N265Q/N371Q limits assumed): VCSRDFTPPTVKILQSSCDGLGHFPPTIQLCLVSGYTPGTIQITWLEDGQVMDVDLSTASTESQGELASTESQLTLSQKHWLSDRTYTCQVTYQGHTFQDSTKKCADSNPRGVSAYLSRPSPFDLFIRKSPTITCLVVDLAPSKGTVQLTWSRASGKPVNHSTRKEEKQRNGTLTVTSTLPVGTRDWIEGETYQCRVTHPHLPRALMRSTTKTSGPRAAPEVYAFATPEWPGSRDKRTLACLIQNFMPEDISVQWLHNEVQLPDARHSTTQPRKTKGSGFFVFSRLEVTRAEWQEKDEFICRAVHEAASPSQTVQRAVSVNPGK
Procedure: In vitro Biochemical Assay: Protocol for preparation of IgE-Tb reagent 86 nmoles of […]) (Young et al., 1995) at 172 μM in 100 mM NaHCO3, pH 9.5 was added to 1 mg of LanthaScreenTM Amine Reactive Tb Chelate (ThermoFisher catalogue number PV3583) and incubated for 16 hours at 20° C. The material was then buffer exchanged into Phosphate Buffered Saline (being, 137 mM NaCl, 2.7 mM KCl, 10 mM Na2HPO4, 1.8 mM K2HPO4, pH 7.4) and the material quantified and the degree of Tb conjugation determined by measuring the absorption at 280 nm and 343 nm. The integrity of the conjugated material was determined by analytical size exclusion chromatography on a 5200 HR 10×300 column (GE Healthcare). Typical conjugation ratios were 4:1 Tb:IgE-Fc. • Young R J., Owens, […]., Chan C M W., Shi J., Hide […]., Henry A J., Sutton B J., and Gould H J (1995) Protein Engineering 8:193-199 Protocol for preparation of […] reagent […] Oxidation was quenched with the addition of 40 μl of ethanediol and incubation for 60 minutes at 22° C. The protein was buffer exchanged in to conjugation buffer (50 mM NaHCO3, 150 mM NaCl, pH 9.5) and concentrated to 750 μM. 175 nmoles of protein was added to 1 mg of Alexa FluorTM 488 hydrazide (Invitrogen) and incubated for 16 hours at 22° C. […] The protein was buffer exchanged into Phosphate Buffered Saline (being, 137 mM NaCl, 2.7 mM KCl, 10 mM Na2HPO4, 1.8 mM K2HPO4, pH 7.4) and the material quantified and the degree of Alexa FluorTM 488 conjugation determined by measuring the absorption at 280 nm and 495 nm. The integrity of the conjugated material was determined by analytical size exclusion chromatography on a 5200 HR 10×300 column (GE Healthcare). Typical conjugation ratios were 2:1 Alexa FluorTM488: sFcεR1α • Cook J P D., Henry […]., Owens R J., Sutton B J., and Gould H J (1997) Biochemistry 36:15579-15588 The aim was to measure binding of IgE-Tb to receptor, and the inhibition thereof by compounds, using an in vitro Fluorescence Resonance Energy Transfer (FRET) Assay. Reagents FRET reagents used were IgE labelled with Terbium (FRET donor), and soluble IgE receptor FcεRIα with a Y131A mutation, labelled with Alexa FluorTM 488 (FRET acceptor). Unlabelled FcεRIα was also used to generate a background control. The assay buffer consisted of 20 mM Tris pH7.2, 150 mM NaCl, and 0.002% Tween, 1% DMSO. Assay Reaction For most of the examples the assay was conducted according to the following: Each assay reaction was conducted in a volume of 25 μl in a 384-well half-volume plate. 10 point compound serial dilutions (3-fold) were generated in DMSO at a concentration of ×50 that of the final assay concentration (FAC). Compound solutions were then prepared by IgE-Tb diluting 10-fold in assay buffer. For the assay, 5 μl of diluted compound was added to 10 μl of IgE-Tb, followed by addition of 10111 FcεRIα-Y131A-AF488. FRET reagents FACs were 5 nM IgE-Tb, 25 nM FcεRIα-Y131A-AF488. Usually the top FAC of compound in the assay was 10 μM. The final DMSO concentration was 2%. The minimum signal (MIN) was measured by adding 5 μl unlabelled FcεRIα at 1 μM (FAC=200 nM) to the FRET reagents. The maximum FRET signal (MAX) was measured in wells containing FRET reagents but no compound. The assay was incubated for 2 hours at room temperature, protected from light and evaporation, and with gentle agitation. FRET Measurement Measurement of FRET for each well was carried out by exciting at 330 nm and measuring emission at 495/520 nm using an Envision plate reader (Perkin Elmer). FRET ratio was calculated as follows: Emission at 520/Emission at 495×1000. The FRET ratio was used for the data analysis. Data Analysis Z' was calculated as follows (σ=standard deviation and μ=mean): 1-((3×σMAX)+(3×σMIN))/(μMAX-/μMIN) Z' above 0.5 was considered a good assay. Background signal (MIN) was subtracted from all wells. Using the background subtracted values, the percent inhibition by compound in each test-well was calculated as follows: 100-Test-well FRET ratio/MAX FRET ratio×100. […]

| SMILES | IC50 [1] [nM] | IC50 [2] [nM] |
| --- | --- | --- |
| CC(C)CNS(=O)(=O)c1c2c(cc3oc(C4CC4)nc13)CCC(n1cnnc1Nc1cc(C(F)F)nn1C)C2 (stereo not drawn) [Example 9, 2-cyclopropyl-6-[3-[[5-(difluoromethyl)-2-methylpyrazol-3-yl]amino]-1,2,4-triazol-4-yl]-N-(2-methylpropyl)-5,6,7,8-tetrahydrobenzo[f][1,3]benzoxazole-4-sulfonamide] | 50 to 100 |  |
| CC(C)CNS(=O)(=O)c1c2c(cc3c1NC(C1CC1)=NO3)CCCC2 [Example 10, 3-cyclopropyl-N-isobutyl-6,7,8,9-tetrahydro-4H-benzo[g][1,2,4]benzoxadiazine-5-sulfonamide] | 50 to 100 |  |
| Cc1ccc(N/C(=N/C#N)NC2CCc3cc4cnc(C5CC5)cc4c(S(=O)(=O)NCC(C)(C)F)c3C2)cc1 (stereo not drawn) [Example 3, 2-Cyano-1-[3-cyclopropyl-5-[(2-fluoro-2-methyl-propyl)sulfamoyl]-6,7,8,9-tetrahydrobenzo[g]isoquinolin-7-yl]-3-(p-tolyl)guanidine] |  | 100 to 1000 |

Reference: patent publication US12410161B2, “Tetrahydrobenzo-quinoline sulfonamides derivative compounds” (UCB Biopharma SRL, priority 2019, dated 2025)
